The numbers were not newly measured in US20100047334A1, “PH SENSITIVE LIPOSOME COMPOSITIONS FOR CONTROLLING SURFACE TOPOGRAPHY AND BINDING REACTIVITY IN FUNCTIONALIZED LIPOSOMES” (priority 2006, published 2010), which cites them from elsewhere.

Like-named read-outs stand apart in the source and are kept apart here.

For data set [1], the target named is streptavidin (Streptomyces avidinii, UniProt P22629).
The conditions of data set [2]: highest reported value; 0.1 ionic strength; dimyristoyl- and dipalmitoyl-phosphatidylserine membranes.

streptavidin, sequence (P22629 25-183): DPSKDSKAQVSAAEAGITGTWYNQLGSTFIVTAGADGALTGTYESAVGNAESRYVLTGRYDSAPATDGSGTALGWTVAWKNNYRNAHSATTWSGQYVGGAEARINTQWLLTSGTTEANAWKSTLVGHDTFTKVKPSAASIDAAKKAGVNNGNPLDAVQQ

As to `CCCCCCCCCCCCCCCC(=O)OC[C@H](COP(=O)([O-])OCC[N+](C)(C)C)OC(=O)CCCCCCCCCCCCCCC` [DPPC lipids, 1,2-Dipalmitoyl-sn-Glycero-3-Phosphocholine], the lateral diffusion coefficient (at 37° C. (gel)) is 10^−10 cm^2/s and the lateral diffusion coefficient (in the fluid state) is recorded as 5×10^−8 cm^2/s.
Turning to `O=C(O)CCCC[C@@H]1SC[C@@H]2NC(=O)N[C@@H]21` [biotin], the “Ka of the biotin-streptavidin link” value in data set [1] is 10^13 M^−1.
As for phosphatidylserine, in data set [2], the “apparent pKa of phosphatidylserine's carboxyl group” value was 5.5.
